Test results published in patent US20080255192A1, “Methods and Compositions for Selectin Inhibition” (Wyeth, priority 2007, published 2008).

What follows are compounds tested against T1, P-selectin/PSGL-1 interaction (Homo sapiens, UniProt P16109) (assay: Biacore P-Selectin/PSGL-1 Inhibition Assay (surface plasmon resonance)). Conditions: 250 uM test compound, 500 nM P.LE, immobilized PSGL-1 19ek, 10% DMSO, pH 7.4.
T1 construct: comprised of the lectin and epidermal growth factor-like (EGF) domains expressed in CHO cells; made in house; host or cells: CHO cells (P-LE)
T1 sequence (P16109 42-198): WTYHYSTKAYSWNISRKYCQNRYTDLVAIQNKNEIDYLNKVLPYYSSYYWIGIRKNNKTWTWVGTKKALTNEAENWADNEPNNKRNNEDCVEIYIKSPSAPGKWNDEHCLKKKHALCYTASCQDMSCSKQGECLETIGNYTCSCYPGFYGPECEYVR
Type: binding
In short: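 Biotinylated monomeric human PSGL-1 "19ek" on streptavidin chip (600–700 RU); compounds preincubated 1 h, then mixed with 500 nM P-LE (lectin-EGF, CHO-expressed) at 250 or 500 μM compound, 10% DMSO, HEPES buffer with 1 mM CaCl2/MgCl2, pH 7.4. SPR at 25 °C; percent binding inhibition from double-referenced signals.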
An inhibition at 250 µM of 17% was found for O=C(O)c1c(O)c(C2(c3ccccc3C(F)(F)F)CC2)nc2c(C(F)(F)F)cccc12 [Compound 63, 3-hydroxy-8-(trifluoromethyl)-2-(1-(2-(trifluoromethyl)phenyl)cyclopropyl)quinoline-4-carboxylic acid] in this work. An inhibition at 250 µM of 20% was found for Cc1cc(C)c2nc(C3(c4ccccc4)CC3)c(O)c(C(=O)O)c2c1 [Compound 64, 3-hydroxy-6,8-dimethyl-2-(1-phenylcyclopropyl)quinoline-4-carboxylic acid] in this work. An inhibition at 250 µM of 31% was found for CCc1cccc2c(C(=O)O)c(O)c(C3(c4ccc(F)cc4)CC3)nc12 [Compound 65, 8-ethyl-2-(1-(4-fluorophenyl)cyclopropyl)-3-hydroxyquinoline-4-carboxylic acid] in this work. An inhibition at 250 µM of at most 10% was found for CCc1ccc2c(C(=O)O)c(O)c(C3(c4ccc(F)cc4)CC3)nc2c1 [Compound 66, 7-ethyl-2-(1-(4-fluorophenyl)cyclopropyl)-3-hydroxyquinoline-4-carboxylic acid] in this work. An inhibition at 250 µM of at most 10% was found for O=C(O)c1c(O)c(C2(c3ccc(F)cc3)CC2)nc2ccc(Cl)cc12 [Compound 67, 6-chloro-2-(1-(4-fluorophenyl)cyclopropyl)-3-hydroxyquinoline-4-carboxylic acid] in this work. An inhibition at 250 µM of at most 10% was found for O=C(O)c1c(O)c(C2(c3ccc(F)cc3)CC2)nc2cc(Cl)ccc12 [Compound 68, 7-chloro-2-(1-(4-fluorophenyl)cyclopropyl)-3-hydroxyquinoline-4-carboxylic acid] in this work. An inhibition at 250 µM of 11% was found for Cc1cc(C)c2nc(C3(c4ccc(F)cc4)CC3)c(O)c(C(=O)O)c2c1 [Compound 69, 2-(1-(4-fluorophenyl)cyclopropyl)-3-hydroxy-6,8-dimethylquinoline-4-carboxylic acid] in this work. An inhibition at 250 µM of 10% was found for CCc1ccc2nc(C3(c4ccc(F)cc4)CC3)c(O)c(C(=O)O)c2c1 [Compound 70, 6-ethyl-2-(1-(4-fluorophenyl)cyclopropyl)-3-hydroxyquinoline-4-carboxylic acid] in this work. An inhibition at 250 µM of 64% was found for O=C(O)c1c(O)c(C2(c3ccc(F)cc3)CC2)nc2c(-c3ccsc3)cccc12 [Compound 71, 2-(1-(4-fluorophenyl)cyclopropyl)-3-hydroxy-8-(thiophen-3-yl)quinoline-4-carboxylic acid] in this work. An inhibition at 250 µM of 12% was found for O=C(O)c1c(O)c(C2(c3ccc(F)cc3)CC2)nc2ccc(Br)cc12 [Compound 72, 6-bromo-2-(1-(4-fluorophenyl)cyclopropyl)-3-hydroxyquinoline-4-carboxylic acid] in this work. An inhibition at 250 µM of at most 10% was found for O=C(O)c1c(O)c(C2(c3ccc(F)cc3)CC2)nc2c(Cl)cccc12 [Compound 73, 8-chloro-2-(1-(4-fluorophenyl)cyclopropyl)-3-hydroxyquinoline-4-carboxylic acid] in this work. An inhibition at 250 µM of 10% was found for O=C(O)c1c(O)c(C2(c3ccc(F)cc3)CC2)nc2cc(Br)ccc12 [Compound 74, 7-bromo-2-(1-(4-fluorophenyl)cyclopropyl)-3-hydroxyquinoline-4-carboxylic acid] in this work. An inhibition at 250 µM of at most 10% was found for O=C(O)c1c(O)c(C2(c3ccc(F)cc3)CC2)nc2c(Br)cccc12 [Compound 75, 8-bromo-2-(1-(4-fluorophenyl)cyclopropyl)-3-hydroxyquinoline-4-carboxylic acid] in this work. An inhibition at 250 µM of 43% was found for O=C(O)c1c(O)c(C2(c3ccc(F)cc3)CC2)nc2c(C(O)(C(F)(F)F)C(F)(F)F)cccc12 [Compound 76, 2-(1-(4-fluorophenyl)cyclopropyl)-8-(1,1,1,3,3,3-hexafluoro-2-hydroxypropan-2-yl)-3-hydroxyquinoline-4-carboxylic acid] in this work. An inhibition at 250 µM of 37% was found for O=C(O)c1c(O)c(C2(c3ccc(F)cc3)CC2)nc2c(-c3ccccc3)cccc12 [Compound 77] in this work. An inhibition at 250 µM of 10% was found for Cc1cccc2c(C(=O)O)c(O)c(C3(c4ccc(F)cc4)CC3)nc12 [Compound 78, 2-(1-(4-fluorophenyl)cyclopropyl)-3-hydroxy-8-methylquinoline-4-carboxylic acid] in this work. An inhibition at 250 µM of at most 10% was found for COc1ccc2nc(C3(c4ccc(F)cc4)CC3)c(O)c(C(=O)O)c2c1 [Compound 79, 2-(1-(4-fluorophenyl)cyclopropyl)-3-hydroxy-6-methoxyquinoline-4-carboxylic acid] in this work. An inhibition at 250 µM of 59% was found for O=C(O)c1c(O)c(C2(c3ccc(F)cc3)CC2)nc2c3c(ccc12)CCCC3 [Compound 80, 2-(1-(4-fluorophenyl)cyclopropyl)-3-hydroxy-7,8,9,10-tetrahydrobenzo[h]quinoline-4-carboxylic acid] in this work. An inhibition at 250 µM of 23% was found for Cc1ccc2c(C(=O)O)c(O)c(C3(c4ccc(F)cc4)CC3)nc2c1C [Compound 81, 2-(1-(4-fluorophenyl)cyclopropyl)-3-hydroxy-7,8-dimethylquinoline-4-carboxylic acid] in this work. An inhibition at 250 µM of 38% was found for CCc1cccc2c(C(=O)O)c(O)c(C3(c4ccc(C)cc4)CC3)nc12 [Compound 82, 8-ethyl-2-(1-p-tolylcyclopropyl)-3-hydroxyquinoline-4-carboxylic acid] in this work. An inhibition at 250 µM of 12% was found for Cc1ccc(C2(c3nc4c(C)cccc4c(C(=O)O)c3O)CC2)cc1 [Compound 83, 8-methyl-2-(1-p-tolylcyclopropyl)-3-hydroxyquinoline-4-carboxylic acid] in this work. An inhibition at 250 µM of 11% was found for Cc1ccc(C2(c3nc4c(C)cc(C)cc4c(C(=O)O)c3O)CC2)cc1 [Compound 84, 3-hydroxy-6,8-dimethyl-2-(1-p-tolylcyclopropyl)quinoline-4-carboxylic acid] in this work. An inhibition at 250 µM of 59% was found for Cc1ccc(C2(c3nc4c(C(O)(C(F)(F)F)C(F)(F)F)cccc4c(C(=O)O)c3O)CC2)cc1 [Compound 85, 8-(1,1,1,3,3,3-hexafluoro-2-hydroxypropan-2-yl)-3-hydroxy-2-(1-p-tolylcyclopropyl)quinoline-4-carboxylic acid] in this work. An inhibition at 250 µM of 54% was found for Cc1ccc(C2(c3nc4c(C(C)C)cccc4c(C(=O)O)c3O)CC2)cc1 [Compound 86, 3-hydroxy-8-isopropyl-2-(1-p-tolylcyclopropyl)quinoline-4-carboxylic acid] in this work. An inhibition at 250 µM of 61% was found for CCc1cccc2c(C(=O)O)c(O)c(C3(c4ccc(C(F)(F)F)cc4)CC3)nc12 [Compound 87, 8-ethyl-3-hydroxy-2-(1-(4-(trifluoromethyl)phenyl)cyclopropyl)quinoline-4-carboxylic acid] in this work. An inhibition at 250 µM of 34% was found for CC(C)c1cccc2c(C(=O)O)c(O)c(C3(c4ccc(C(F)(F)F)cc4)CC3)nc12 [Compound 88, 3-hydroxy-8-isopropyl-2-(1-(4-(trifluoromethyl)phenyl)cyclopropyl)quinoline-4-carboxylic acid] in this work. An inhibition at 250 µM of 10% was found for CCc1ccc2c(C(=O)O)c(O)c(C3(c4ccc(C(F)(F)F)cc4)CC3)nc2c1 [Compound 89, 7-ethyl-3-hydroxy-2-(1-(4-(trifluoromethyl)phenyl)cyclopropyl)quinoline-4-carboxylic acid] in this work. An inhibition at 250 µM of 47% was found for O=C(O)c1c(O)c(C2(c3ccc(C(F)(F)F)cc3)CC2)nc2ccc(OC(F)(F)F)cc12 [Compound 90, 3-hydroxy-6-(trifluoromethoxy)-2-(1-(4-(trifluoromethyl)phenyl)cyclopropyl)quinoline-4-carboxylic acid] in this work. An inhibition at 250 µM of at most 10% was found for O=C(O)c1c(O)c(C2(c3ccc(C(F)(F)F)cc3)CC2)nc2c(-c3ccsc3)cccc12 [Compound 91, 3-hydroxy-8-(thiophen-3-yl)-2-(1-(4-(trifluoromethyl)phenyl)cyclopropyl)quinoline-4-carboxylic acid] in this work. An inhibition at 250 µM of at most 10% was found for O=C(O)c1c(O)c(C2(c3ccc(C(F)(F)F)cc3)CC2)nc2c(-c3ccccc3)cccc12 [Compound 92, 3-hydroxy-8-phenyl-2-(1-(4-(trifluoromethyl)phenyl)cyclopropyl)quinoline-4-carboxylic acid] in this work. An inhibition at 250 µM of 33% was found for O=C(O)c1c(O)c(C2(c3ccc(C(F)(F)F)cc3)CC2)nc2c3c(ccc12)CCCC3 [Compound 93, 3-hydroxy-2-(1-(4-(trifluoromethyl)phenyl)cyclopropyl)-7,8,9,10-tetrahydrobenzo[h]quinoline-4-carboxylic acid] in this work. An inhibition at 250 µM of 65% was found for Cc1cc(C(F)(F)F)c2nc(C3(c4ccc(Cl)cc4)CC3)c(O)c(C(=O)O)c2c1 [Compound 94, 2-(1-(4-chlorophenyl)cyclopropyl)-3-hydroxy-6-methyl-8-(trifluoromethyl)quinoline-4-carboxylic acid] in this work. An inhibition at 250 µM of at most 10% was found for O=C(O)c1c(O)c(C2(c3ccc(Cl)cc3)CC2)nc2c(C(F)(F)F)cc(Cl)cc12 [Compound 95, 6-chloro-2-(1-(4-chlorophenyl)cyclopropyl)-3-hydroxy-8-(trifluoromethyl)quinoline-4-carboxylic acid] in this work. An inhibition at 250 µM of at most 10% was found for O=C(O)c1c(O)c(C2(c3ccc(Cl)cc3)CC2)nc2c(C(F)(F)F)cc(-c3ccccc3)cc12 [Compound 96, 2-(1-(4-chlorophenyl)cyclopropyl)-3-hydroxy-6-phenyl-8-(trifluoromethyl)quinoline-4-carboxylic acid] in this work. An inhibition at 250 µM of 40% was found for Cc1cc(C(F)(F)F)cc2c(C(=O)O)c(O)c(C3(c4ccc(Cl)cc4)CC3)nc12 [Compound 97, 2-(1-(4-chlorophenyl)cyclopropyl)-3-hydroxy-8-methyl-6-(trifluoromethyl)quinoline-4-carboxylic acid] in this work. An inhibition at 250 µM of at most 10% was found for CCc1cc(C(F)(F)F)c2nc(C3(c4ccc(Cl)cc4)CC3)c(O)c(C(=O)O)c2c1 [Compound 98] in this work. An inhibition at 250 µM of at most 10% was found for CCc1cc(C(F)(F)F)cc2c(C(=O)O)c(O)c(C3(c4ccc(Cl)cc4)CC3)nc12 [Compound 99, 2-(1-(4-chlorophenyl)cyclopropyl)-8-ethyl-3-hydroxy-6-(trifluoromethyl)quinoline-4-carboxylic acid] in this work.
